Values quoted from earlier work as cited in patent EP2535049A1 (Proyecto de Biomedicina Cima, S.L., priority 2011, dated 2012).

Conditions: Kulkarni and Patil 2004; Forgue et al., 2006; cited from earlier work

CCCc1nc(C)c2c(=O)[nH]c(-c3cc(S(=O)(=O)N4CCN(CC)CC4)ccc3OCC)nn12 [vardenafil]
half-life in blood serum: 3.4 h
